The source of these data is patent publication US5610161A, “Therapeutic agents” (The Boots Company PLC, priority 1992, dated 1997).

SMILES strings stand for the structures. Structures can show the parent of a compound that is named as a salt. Where two headings read alike, the source gives them in different places.

One test deals with reserpine-induced ptosis. Briefly: Test 2: prevention of reserpine-induced ptosis (eye closure) in rats, oral. It is filed as in vivo, rats (Charles River CD strain, male). Conditions: for ED50: Rattus norvegicus, read-out: Test 2 ED50 (dose causing 50% prevention of the reserpine-induced ptosis).
Test [1] relates to reserpine-induced fall in body temperature. Nature of the test: Test 1: reversal of reserpine-induced hypothermia in mice, oral. It is filed as in vivo, mice (Charles River CD1 strain, male). Conditions: for ED50: Mus musculus, read-out: Test 1 ED50 (dose causing 50% reversal of the reserpine-induced fall in body temperature).
Protocol: Male mice of the Charles River CD1 strain weighing between 18 and 30 g were separated into groups of five and were supplied with food and water ad libitum. After five hours the body temperature of each mouse was taken orally and the mice were injected intraperitoneally with reserpine (10 mg/kg) in solution in deionised water containing ascorbic acid (50 mg/ml). The amount of liquid injected was 10 ml/kg of body weight. Nine hours after the start of the test food was withdrawn but water was still available ad libitum. Twenty-four hours after the start of the test the temperatures of the mice were taken and the mice were given the test compound orally at a dose volume of 10 ml/kg of body weight. The compound was administered in aqueous solution. Three hours later the temperatures of all the mice were again taken. The percentage reversal of the reserpine-induced fall in body temperature was then calculated by the formula: [formula] The percentage reversal value for each group of five mice was determined at more than one dose rate to enable a value of the dose which causes a 50% reversal (ED50) to be obtained.
[2] abbreviates: rats, oral, reserpine 0.75 mg/kg i.v., ptosis scored 3 h later.
Setting [3] is: mice, oral, reserpine 10 mg/kg i.p., temperature 3 h after compound.

Description for reserpine-induced ptosis: Male rats of the Charles River CD strain weighing between 140 and 180 g were randomly separated into five rats in each cage and supplied with food and water ad libitum. Eighteen hours prior to initiation of the test four of the five rats were marked with a pen such that each rat was individually identifiable; food was then withdrawn. The following morning, two hours before the test, the rats were weighed and a semi-randomised code was used to allocate treatments to rats. The test commenced by orally administering either:
a) the test compound in solution in deionised water at a dose volume of 10 ml/kg of body weight, followed by immediate intravenous injection of 1 ml/kg of body weight of reserpine (0.75 mg/kg) in solution in deionised water containing 238 mM citric acid, 1.02% v/v Tween 80 and 0.2% v/v benzyl alcohol (treated group);
b) deionised water at a dose volume of 10 ml/kg of body weight, followed by immediate intravenous injection of 1 ml/kg of body weight of reserpine (0.75 mg/kg) in solution in deionised water containing 238 mM citric acid, 1.02% v/v Tween 80 and 0.2% v/v benzyl alcohol (positive control group); or
c) deionised water at a dose volume of 10 ml/kg of body weight, followed by immediate intravenous injection of 1 ml/kg of body weight of deionised water containing 238 mM citric acid, 1.02% v/v Tween 80 and 0.2% v/v benzyl alcohol (negative control group).
The degree of prosis was scored 45 seconds and 75 seconds later using the following observer rating system: 0=eye fully open, 1=eye 1/4 closed, 2=eye 1/2 closed, 3=eye 3/4 closed, 4=eye fully closed. A mean ptosis score was then calculated for all identically treated rats usually comprising a group of eight rats. […] The mean ptosis score for each group of treated rats was determined at more than one dose of test compound to enable a value for the dose (ED50) which causes a 50% prevention of the reserpine-induced ptosis to be obtained.

Usually ED50 stands for the dose at which the effect has come halfway, by size or by number of responders. `OC1(c2ccc(Cl)cc2)CCCNC12CCCCC2` (centres unmarked) [Example 1, 5-(4-chlorophenyl)-5-hydroxy-1-azaspiro[5.5]undecane]: the ED50 in the test with reserpine-induced ptosis (setting [2]) was determined as 11.3 mg/kg. The “Test 1 ED50 (dose causing 50% reversal of the reserpine-induced fall in body temperature)” value in test [1] (setting [3]) is “Inactive @ 30”.
Consider `OC1(c2cccc(Cl)c2)CCCNC12CCCCC2` (centres unmarked) [Example 2, 5-(3-chlorophenyl)-5-hydroxy-1-azaspiro[5.5]undecane], for which the ED50 in the test with reserpine-induced ptosis (setting [2]) was 8.1 mg/kg; in test [1] (setting [3]), about 16 mg/kg.
Turning to `OC1(c2ccc(Cl)c(Cl)c2)CCCNC12CCCCC2` (centres unmarked) [Example 3, 5-(3,4-dichlorophenyl)-5-hydroxy-1-azaspiro[5.5]undecane], the ED50 in the test on reserpine-induced ptosis (setting [2]) turned out to be 7.7 mg/kg; in test [1] (setting [3]), 10.7 mg/kg.
For the compound `CCN1CCCC(O)(c2ccc(Cl)cc2)C12CCCCC2.Cl` (centres unmarked) [Example 4, 5-(4-chlorophenyl)-1-ethyl-5-hydroxy-1-azaspiro[5.5]undecane hydrochloride], the ED50 in the test on reserpine-induced ptosis (setting [2]) is 2.2 mg/kg. Further, the “Test 1 ED50 (dose causing 50% reversal of the reserpine-induced fall in body temperature)” value in test [1] (setting [3]) is reported as “Inactive @ 30”.
In the case of `Clc1ccc(C2=CCCNC23CCCCC3)cc1.O=S(=O)(O)O` [Example 5, 5-(4-chlorophenyl)-1-azaspiro[5.5]undec-4-ene sulphate], the ED50 in the test with reserpine-induced ptosis (po, 3 h) was 7 mg/kg; in test [1] (po, 3 h), about 20 mg/kg.
Regarding `Clc1ccc(C2=CCCNC23CCCCC3)cc1` [Example 6, 5-(4-chlorophenyl)-1-azaspiro[5.5]undec-4-ene 0.5 sulphate, 2.1 hydrate], the ED50 with reserpine-induced ptosis (setting [2]) was determined as 2.7 mg/kg; in test [1] (setting [3]), 14.1 mg/kg.
For `Cl.Clc1ccc(C2=CCCNC23CCCCC3)cc1` [Example 7, 5-(4-chlorophenyl)-1-azaspiro[5.5]undec-4-ene hydrochloride] the same measures were 1.4 mg/kg and 2 mg/kg.
As to `Cl.Clc1cccc(C2=CCCNC23CCCCC3)c1` [Example 8, 5-(3-chlorophenyl)-1-azaspiro[5.5]undec-4-ene hydrochloride], the ED50 with reserpine-induced ptosis (po, 3 h) is 5.1 mg/kg; in test [1] (po, 3 h) it was 16.4 mg/kg.
Take `Cl.Clc1ccc(C2=CCCNC23CCCCC3)cc1Cl` [Example 9, 5-(3,4-dichlorophenyl)-1-azaspiro[5.5]undec-4-ene hydrochloride]: the ED50 in the test on reserpine-induced ptosis (setting [2]) was 3.9 mg/kg; in test [1] (setting [3]) it was about 11 mg/kg.
For `Fc1ccc(C2=CCCNC23CCCCC3)cc1.O=S(=O)(O)O` [Example 10, 5-(4-fluorophenyl)-1-azaspiro[5.5]undec-4-ene sulphate], the ED50 is 8.5 mg/kg with reserpine-induced ptosis (po, 3 h) and about 18 mg/kg in test [1] (po, 3 h).
For the compound `Cl.FC(F)(F)c1cccc(C2=CCCNC23CCCCC3)c1` [Example 11, 5-[3-(trifluoromethyl)phenyl]-1-azaspiro[5.5]undec-4-ene hydrochloride], the “Test 2 ED50 (dose causing 50% prevention of the reserpine-induced ptosis)” value with reserpine-induced ptosis (setting [2]) is “Inactive @ 30”. In addition, the ED50 in test [1] (setting [3]) was about 22 mg/kg.
Regarding `C1=C(c2ccc3ccccc3c2)C2(CCCCC2)NCC1.Cl` [Example 12, 5-(2-naphthyl)-1-azaspiro[5.5]undec-4-ene hydrochloride], the ED50 (in the test with reserpine-induced ptosis (setting [2]); in test [1] (setting [3])) was 11.9 mg/kg in each case.
With `Cl.Oc1ccc(C2=CCCNC23CCCCC3)cc1` [Example 13, 5-(4-hydroxyphenyl)-1-azaspiro[5.5]undec-4-ene hydrochloride], the ED50 in the test with reserpine-induced ptosis (setting [2]) worked out at 21.8 mg/kg. Besides, the “Test 1 ED50 (dose causing 50% reversal of the reserpine-induced fall in body temperature)” value in test [1] (setting [3]) is on record as “Inactive @ 30”.
For the compound `CN1CCC=C(c2ccc(Cl)cc2)C12CCCCC2.Cl` [Example 14, 5-(4-chlorophenyl)-1-methyl-1-azaspiro[5.5]undec-4-ene hydrochloride], the ED50 was 30 mg/kg in the test with reserpine-induced ptosis (setting [2]) and about 12 mg/kg in test [1] (setting [3]).
The corresponding values for `Clc1ccc(C2=CCCNC23CCCCC3)cc1.O=C(O)/C=C/C(=O)O` [Example 15, 5-(4-chlorophenyl)-1-azaspiro[5.5]undec-4-ene fumarate] are 3.8 mg/kg and 6.9 mg/kg.
Consider `CS(=O)(=O)O.Clc1ccc(C2=CCCNC23CCCCC3)cc1` [Example 16, 5-(4-chlorophenyl)-1-azaspiro[5.5]undec-4-ene methanesulphonate], for which the ED50 in the test on reserpine-induced ptosis (setting [2]) turned out to be 3.3 mg/kg; in test [1] (setting [3]) it was 9.4 mg/kg.
On to `Clc1ccc(C2=CCCNC23CCCC3)cc1.O=S(=O)(O)O` [Example 17, 10-(4-chlorophenyl)-6-azaspiro[4.5]dec-9-ene sulphate], for which the ED50 is 3.1 mg/kg in the test on reserpine-induced ptosis (po, 3 h) and about 23 mg/kg in test [1] (po, 3 h).
Take `Cl.Clc1ccc(C2CCCNC23CCCCC3)cc1` (centres unmarked) [Example 18, 5-(4-chlorophenyl)-1-azaspiro[5.5]undecane hydrochloride]: the results for the ED50 (with reserpine-induced ptosis (setting [2]); in test [1] (setting [3])) were 0.5 mg/kg and 4.8 mg/kg, respectively.
In the case of `COc1ccc(C2CCCNC23CCCCC3)cc1.Cl` (centres unmarked) [Example 19, 5-(4-methoxyphenyl)-1-azaspiro[5.5]undecane hydrochloride], the ED50 in the test on reserpine-induced ptosis (setting [2]) was 5.8 mg/kg; in test [1] (setting [3]), about 14 mg/kg.
The corresponding values for `CCCN1CCC=C(c2ccc(Cl)cc2)C12CCCCC2` [Example 20, 5-(4-chlorophenyl)-1-propyl-1-azaspiro[5.5]undec-4-enehydrochloride] are 3 mg/kg and about 26 mg/kg.
In the case of `C=CCN1CCC=C(c2ccc(Cl)cc2)C12CCCCC2.O=C(O)/C=C\C(=O)O` [Example 21, 1-allyl-5-(4-chlorophenyl)-1-azaspiro[5.5]undec-4-ene maleate], in the test on reserpine-induced ptosis (setting [2]), the ED50 was 9.1 mg/kg. Also, the “Test 1 ED50 (dose causing 50% reversal of the reserpine-induced fall in body temperature)” value in test [1] (setting [3]) is “Inactive @ 30”.
Regarding `COCCN1CCC=C(c2ccc(Cl)cc2)C12CCCCC2` [Example 22, 5-(4-chlorophenyl)-1-(2-methoxyethyl)-1-azaspiro[5.5]undec-4-ene 1.25 hydrochloride], the values for the ED50 (in the test with reserpine-induced ptosis (setting [2]); in test [1] (setting [3])) were 10.1 mg/kg and about 30 mg/kg, respectively.
In the case of `C1=C(c2ccccc2)C2(CCCCC2)NCC1.Cl` [Example 24, 5-phenyl-1-azaspiro[5.5]undec-4-ene hydrochloride], in the test on reserpine-induced ptosis (setting [2]), the “Test 2 ED50 (dose causing 50% prevention of the reserpine-induced ptosis)” value is “Inactive @ 30”. For the same compound, the ED50 in test [1] (setting [3]) is about 11.5 mg/kg.
As for `C1=C(c2ccc(-c3ccccc3)cc2)C2(CCCCC2)NCC1.Cl` [Example 25, 5-(4-biphenylyl)-1-azaspiro[5.5]undec-4-ene hydrochloride], in the test on reserpine-induced ptosis (setting [2]), the ED50 amounted to 9.9 mg/kg. In addition, the “Test 1 ED50 (dose causing 50% reversal of the reserpine-induced fall in body temperature)” value in test [1] (setting [3]) is listed as “Inactive @ 30”.
The corresponding values for `Cl.Clc1ccc(C2=CCNC23CCCCC3)cc1` [Example 26, 4-(4-chlorophenyl)-1-azaspiro[4.5]dec-3-ene hydrochloride] are 5.6 mg/kg and “Inactive @ 30”.
